For assay [1], the target named is c-AMP phosphodiesterase (erythrocytes). Briefly: Inhibition of Cyclic AMP Phosphodiesterase. The class given is biochemical. To be noted: erythrocyte phosphodiesterase extract. The method, then:
The procedure used was that described by Arch, J. R. S. and Newsholme, E. A. in Biochem. J. 158, 603, (1976):
Erythrocytes were obtained from Na-citrate (16 mM; 0.1 ml/ml blood) anticoagulated blood by repeated centrifugation with removal of the buff coat and washing with an isotonic buffer (composition in mM: NaCl 13.7, KCl 4, CaCl2.2 H2 O 1.8, Na2 HPO4.12 H2 O 0.8, NaH2 PO4 0.2, MgSO4.7 H2 O 0.7, Hepes 3.4; pH 7.4).
The phosphodiesterase was extracted by mixing the erythrocytes with 4 volumes of 7 mM phosphate buffer, pH7.4, followed by sonification (3×10 sec; 100 W) and then centrifuging for 30 min at 4200×g.
All supernatants were diluted in the extraction medium and assayed for phosphodiesterase activity within 6 hours of preparation, using the radiochemical procedure described in the above mentioned reference.

In the next assay the test system is PDE III (cGMP-inhibited). To be noted: guinea-pig heart; cited from earlier work.
Assay [2] has as its system PDE Ib (Ca^2 +/calmodulin-stimulated). To be noted: porcine aorta; cited from earlier work.
Assay [3] relates to PDE Ic (Ca^2 +/calmodulin-stimulated). To be noted: guinea-pig heart; cited from earlier work.
Assay [4] relates to PDE IV (Ro 20-1724-inhibited). To be noted: human monocyte; cited from earlier work.

Molecules are shown by their SMILES.

Usually Ki stands for the equilibrium dissociation constant of an inhibitor or competing ligand from its target. Usually Km stands for the concentration of substrate that gives half-maximal velocity.

In turn, `COc1ccc(C2CCCCC2)cc1OC1CCCC1` [Example 5, 1-Methoxy-2-cyclopentyloxy-4-cyclohexyl-benzene] yielded a Ki in assay [1] of 2100 nM.

With `COc1ccc(C2=CC(=O)CC2)cc1OC` [Example 1, 1-(3,4-Dimethoxyphenyl)-cyclopent-1,2-ene-3-one], in assay [1], the Ki came out at 10900 nM. This Ki is about 5.2-fold higher than that of the molecule before.

On to `COc1ccc(C2=CC(=O)CC2)cc1OC1CCCC1` [Example 2, 1-(3-(Cyclopentyloxy-4-methoxy)-phenyl)-cyclopent-1,2-ene-3-one], for which, in assay [1], the Ki turned out to be 1100 nM.

The molecule `COc1ccc(C2CCCCC2)cc1OC` [Example 6, 1,2-Dimethoxy-4-cyclohexyl-benzene] registered an inhibition constant Ki in assay [1] of 14100 nM.

For the molecule `Nc1nc2c(ncn2[C@@H]2O[C@@H]3COP(=O)(O)O[C@H]3[C@H]2O)c(=O)[nH]1` [cGMP], the Km is 8 µM in the assay on PDE III (cGMP-inhibited), 5 µM in assay [2], 2 µM in assay [3] and 38 µM in assay [4].

Turning to `COc1ccc(C2=CC(=O)CCC2)cc1OC` [Example 4, 1-(3,4-Dimethoxyphenyl)-cyclohex-1,2-ene-3-one], in assay [1], the Ki is 3000 nM.

In the case of `COc1ccc(C2=CC(=O)CCC2)cc1OC1CCCC1` [Example 3], the Ki in assay [1] was found to be 700 nM.

These data come from patent US5362915A, “Phenyl-substituted cycloalkenyl compounds useful as PDE IV inhibitors” (SmithKline Beecham Pharma GmbH, priority 1990, dated 1994).
